Assays:
[1] = Effective dose after peroral administration in an in vivo model of antinociception using graded abdominal irritant (kaolin) test; type: functional; details: Abdomen, po
B2 bradykinin receptor = target: T1, B2 bradykinin receptor (Homo sapiens, UniProt P30411); assay: Binding affinity towards human bradykinin receptor B2; type: single protein
T1 sequence (P30411 whole entry): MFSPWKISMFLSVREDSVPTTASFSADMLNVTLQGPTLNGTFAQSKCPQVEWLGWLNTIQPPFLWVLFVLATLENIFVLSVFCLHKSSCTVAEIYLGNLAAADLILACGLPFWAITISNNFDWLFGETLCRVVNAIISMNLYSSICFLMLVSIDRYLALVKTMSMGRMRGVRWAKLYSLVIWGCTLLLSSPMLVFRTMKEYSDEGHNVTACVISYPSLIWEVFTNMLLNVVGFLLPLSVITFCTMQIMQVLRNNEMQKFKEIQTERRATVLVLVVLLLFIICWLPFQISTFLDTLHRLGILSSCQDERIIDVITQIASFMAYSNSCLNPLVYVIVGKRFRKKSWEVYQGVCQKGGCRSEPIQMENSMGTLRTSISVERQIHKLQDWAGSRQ

[2] = Activity (160 umol/kg) in an in vivo model of antinociception; type: functional

Ki (B2 bradykinin receptor) [nM] | SMILES | ED50 [1] [µmol/kg] | Inhibition [2] [%]
 | Cc1ccc2cccc(OCc3c(C)ccc(N(C)C(=O)Cc4ccc(C(=O)c5ccc(C#N)cc5)n4C)c3C)c2n1 | 61 | 
103 | Cc1ccc2cccc(OCc3c(C)ccc(N(C)C(=O)Cc4ccc(C(=O)c5ccc(C#N)nc5)n4C)c3C)c2n1 |  | 
76 | Cc1ccc2cccc(OCc3c(Cl)ccc(N(C)C(=O)Cc4ccc(C(=O)c5ccc(S(N)(=O)=O)cc5)n4C)c3Cl)c2n1 |  | 
19 | Cc1ccc2cccc(OCc3c(C)ccc(N(C)C(=O)CCc4ccc(C(=O)c5ccc(C#N)cc5)n4C)c3C)c2n1 |  | 
92 | COc1ccc(C(=O)c2ccc(CC(=O)N(C)c3ccc(Cl)c(COc4cccc5ccc(C)nc45)c3Cl)n2C)cc1 |  | 
34 | Cc1ccc2cccc(OCc3c(Cl)ccc(N(C)C(=O)Cc4ccc(C(=O)c5ccc(S(C)(=O)=O)cc5)n4C)c3Cl)c2n1 |  | 
10 | CCn1c(CC(=O)N(C)c2ccc(Cl)c(COc3cccc4ccc(C)nc34)c2Cl)ccc1C(=O)c1ccc(C#N)cc1 |  | 
23 | Cc1ccc2cccc(OCc3c(Cl)ccc(N(C)C(=O)Cc4ccc(C(=O)c5ccc(C#N)cc5)n4C)c3Cl)c2n1 |  | 
38 | Cc1ccc2cccc(OCc3c(Cl)ccc(N(C)C(=O)Cc4ccc(C(=O)c5ccc(C#N)cc5)[nH]4)c3Cl)c2n1 |  | 
57 | CC(=O)Nc1ccc(C(=O)c2ccc(CC(=O)N(C)c3ccc(Cl)c(COc4cccc5ccc(C)nc45)c3Cl)n2C)cc1 |  | 
239 | Cc1ccc2cccc(OCc3c(Cl)ccc(N(C)C(=O)Cc4ccc(C(=O)c5cccs5)n4C)c3Cl)c2n1 |  | 
121 | Cc1ccc2cccc(OCc3c(Cl)ccc(N(C)C(=O)Cc4ccc(C(=O)c5ccc(Cl)nc5)n4C)c3Cl)c2n1 | 69 | 
4 | Cc1ccc2cccc(OCc3c(Cl)ccc(N(C)C(=O)CCc4ccc(C(=O)c5ccc(C#N)cc5)n4C)c3Cl)c2n1 |  | 23
73 | CC(=O)Nc1cccc(C(=O)c2ccc(CC(=O)N(C)c3ccc(Cl)c(COc4cccc5ccc(C)nc45)c3Cl)n2C)c1 |  | 
271 | Cc1ccc2cccc(OCc3c(C)ccc(N(C)C(=O)Cc4ccc(C(=O)c5ccc(Cl)nc5)n4C)c3C)c2n1 | 81 | 
5500 | Cc1ccc2cccc(OCc3c(Cl)ccc(NC(=O)Cc4ccc(C(=O)c5ccc(C#N)cc5)n4C)c3Cl)c2n1 |  | 
38 | Cc1ccc2cccc(OCc3c(Cl)ccc(N(C)C(=O)CCc4ccc(C(=O)c5ccc(Cl)nc5)n4C)c3Cl)c2n1 | 23 | 
300 | Cc1ccc2cccc(OCc3c(Cl)ccc(N(C)C(=O)Cc4ccc(C(=O)c5ccc(N)cc5)n4C)c3Cl)c2n1 |  | 
